Legend:
[1] = in vivo; format: in vivo, BALB/c mice; conditions: mouse, in vivo
Experimental: The animals were obtained from the Center of Experimental Medicine (University of Bialystok, Bialystok, Poland) and housed under standard laboratory conditions. Mice had unlimited access to water and food. All the procedures were conducted according to the guidelines of the local ethical commission (appl no. 06/2019, perm. no 10/2019). […] Four animals per time point were sacrificed at 10 min, 30 min, 1 h, 2 h, and 4 h after per os administration and 5 min, 10 min, 30 min, 1 h, and 2 h after i.v. administration. The blood (0.5 mL) was collected by heart puncture using probes with anticoagulants (K2EDTA). Plasma samples were obtained by blood centrifugation (15 min, 3000× g at 23 °C). The whole brain was dissected from the skull and washed with cold 0.9% NaCl on ice. The left hemisphere was quickly frozen in liquid nitrogen and stored at −80 °C for further bioanalytical analysis. From the right hemisphere, the hippocampus and frontal cortex were isolated, weighed, and stored at −80 °C after freezing in liquid nitrogen. Isolated structures were homogenized in N-PER cocktail (10 μL for every 1 mg of tissue) using a hand homogenizer, and then processed as described in Section 4.3.3.
For bioanalytical evaluation, brain samples were homogenized in water (3 mL for every 1 g of brain tissue). Plasma and brain samples were then prepared by precipitating proteins and extracting analytes using acetonitrile with the addition of the internal standard: 150 μL of extraction solution was added to 50 μL of biological material, mixed for 1 min and centrifuged (12,900 RPM, 4 min, 4 °C), and the supernatant was collected for analysis. Standard solutions including calibration standards and quality control samples were prepared by spiking 45 μL of biological material with 5 μL of standard working solution, adding 150 μL of extraction solution, and then mixing, centrifuging, and collecting the supernatant for analysis. The concentrations of analytes in the plasma and brain samples were determined using a UPLC-MS/MS instrument (Agilent Technologies) and chromatographic columns (Agilent Zorbax Eclipse 50 × 2.1 mm; 1.7 μm).

[2] = biological target: T1, exTrkB (Homo sapiens, UniProt Q16620); assay: MST binding affinity (Kd) determination
T1 construct: human TrkB receptor (exTrkB), residues 1−430, was cloned into the pCMV2 expression vector; made in house; host or cells: ExpiCHO-S cells
T1 sequence (Q16620 32-430): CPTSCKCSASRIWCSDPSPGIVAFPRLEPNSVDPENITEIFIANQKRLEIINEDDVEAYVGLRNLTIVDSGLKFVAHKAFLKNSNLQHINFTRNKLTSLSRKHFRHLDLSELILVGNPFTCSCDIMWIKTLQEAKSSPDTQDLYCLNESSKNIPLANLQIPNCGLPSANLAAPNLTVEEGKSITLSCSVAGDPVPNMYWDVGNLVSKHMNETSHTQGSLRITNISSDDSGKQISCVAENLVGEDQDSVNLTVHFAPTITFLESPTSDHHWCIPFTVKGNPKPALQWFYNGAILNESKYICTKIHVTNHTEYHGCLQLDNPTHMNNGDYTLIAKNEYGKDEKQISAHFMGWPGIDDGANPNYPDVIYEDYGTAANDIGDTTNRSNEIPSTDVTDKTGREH
Experimental: The gene encoding the extracellular domain of the human TrkB receptor (exTrkB), residues 1−430, was cloned into the pCMV2 expression vector. Protein expression was performed in suspension-cultivated mammalian ExpiCHO-S cells using the ExpiFectamine (Thermo Scientific, Thermo Fisher Scientific, Waltham, MA, USA) transfection reagent. The secreted protein was purified using a four-step protocol. Clarified culture medium was precipitated with ammonium sulfate added to a final concentration of 1.5 M and centrifuged (235,000× g, 60 min at 4 °C). The supernatant after centrifugation was applied on a HiTrap Phenyl column (GE Healthcare, Chicago, IL, USA) equilibrated with buffer A (25 mM Tris, 1 mM DTT; pH 7.5) with 1.5 M ammonium sulfate. Bound proteins were eluted with a linear gradient of buffer A. The eluted proteins were dialyzed overnight in buffer A and loaded on a CaptoQ ImpRes column (GE Healthcare) equilibrated with buffer A with 50 mM NaCl. The bound proteins were eluted with a linear gradient of buffer A with 1 M NaCl. The fractions containing exTrkB protein were pooled, and MnCl2 and CaCl2 (1mM final concentration each) were added. The sample was purified on a HiTrap Con A 4B column (GE Healthcare) equilibrated with buffer B (25 mM Tris, 0.5 M NaCl, 1 mM MnCl2, 1 mM CaCl2; pH 7.5) and eluted with buffer C (25 mM Tris, 0.1 M NaCl, 0.4 M α-D-glucopyranoside; pH 6.5). To improve the protein recovery, buffer C flow was paused nine times during elution. The eluted fractions were concentrated and purified by size-exclusion chromatography on a HiLoad 16/600 Superdex 200 column (GE Healthcare) in buffer A with 0.5 M NaCl. The protein samples were concentrated to 1 mg/mL, and buffer was exchanged (PBS; pH 7.4). Samples were frozen in liquid nitrogen and stored at −80 °C. The protein purity was estimated by SDS–PAGE followed by Coomassie Brilliant Blue staining. The protein concentration was determined from the absorption at 280 nm using an UV NanoDrop 1000 spectrophotometer (Thermo Scientific).
The exTrkB was labeled with a Monolith Protein Labeling Kit RED-NHS 2nd Generation (NanoTemper Technologies GmbH, Munich, Germany) according to the manufacturer’s protocol. The labelling efficiency was always determined spectrophotometrically with NanoPhotometer® NP80 (Impel) in line with the manufacturer’s recommendations. Labelled exTrkB protein was aliquoted and stored at −80 °C to avoid repeated freeze–thaw cycles. Before analysis, the exTrkB protein was thawed on ice and diluted with MST buffer (50 mM Tris pH = 8; 150 mM NaCl; 10 mM MgCl2; 0.1% Tween20) to the desired concentration.
For primary screening (single-point MST experiments for signal amplitude determination), each of the 987 screened compounds were diluted in MST buffer + 0.1% Tween20 to a final concentration of 0.5 mM. The tested compounds were mixed with exTrkB solution (the final concentration of exTrkB was 20 nM) and centrifuged (10,000× g, 4 min at 4 °C) to eliminate protein and compound aggregates. Before loading to capillaries (Monolith NT.115 Capillaries, NanoTemper Technologies GmbH), the samples were incubated for 5 min at 25 °C and then placed into the MST apparatus (Monolith, NanoTemper Technologies GmbH). The experiments were performed using nano-blue excitation, LED light adjusted to 20% excitation power, and MST power set to medium, and the fluorescence signal during thermophoresis was detected after 30 s. Single-point MST experiments were performed by the determination of the amplitude signal between the unbound and bound state between the molecule and exTrkB, which was analyzed using the MO.Control Software version 1.6 (NanoTemper Technologies GmbH). A reference sample containing only exTrkB and the equivalent DMSO concentration (v/v) was included in each individual MST experiment. At least three technical replicates were prepared for each of the tested compounds. A binding affinity study was performed for 113 of the selected compounds at 16 concentration points. […]

[3] = Metabolic stability in human liver microsomes; conditions: for Clint HLM: 1 μM, phase I; for Metabolic stability in HLM (classification): compared with verapamil
[4] = system: Caco-2 monolayer; assay: Caco-2 passive permeability; conditions: for Papp,AB: Caco-2, apical to basal; for Papp,AB / Papp,BA: 2 h; for Papp,BA: Caco-2, basal to apical
[5] = Metabolic stability in mouse liver microsomes; conditions: for Clint MLM: 1 μM, phase I; for Metabolic stability in MLM (classification): compared with verapamil
[6] = biological target: T2, TrkB receptor (Rattus norvegicus, UniProt Q63604); assay: ELFI TrkB phosphorylation, orthosteric agonist mode, SN56 T48 cell line; format: cell-based; conditions: 0.125–100 μM, 15 min
T2 construct: host or cells: SN56 T48 cell line
T2 sequence (Q63604 32-821): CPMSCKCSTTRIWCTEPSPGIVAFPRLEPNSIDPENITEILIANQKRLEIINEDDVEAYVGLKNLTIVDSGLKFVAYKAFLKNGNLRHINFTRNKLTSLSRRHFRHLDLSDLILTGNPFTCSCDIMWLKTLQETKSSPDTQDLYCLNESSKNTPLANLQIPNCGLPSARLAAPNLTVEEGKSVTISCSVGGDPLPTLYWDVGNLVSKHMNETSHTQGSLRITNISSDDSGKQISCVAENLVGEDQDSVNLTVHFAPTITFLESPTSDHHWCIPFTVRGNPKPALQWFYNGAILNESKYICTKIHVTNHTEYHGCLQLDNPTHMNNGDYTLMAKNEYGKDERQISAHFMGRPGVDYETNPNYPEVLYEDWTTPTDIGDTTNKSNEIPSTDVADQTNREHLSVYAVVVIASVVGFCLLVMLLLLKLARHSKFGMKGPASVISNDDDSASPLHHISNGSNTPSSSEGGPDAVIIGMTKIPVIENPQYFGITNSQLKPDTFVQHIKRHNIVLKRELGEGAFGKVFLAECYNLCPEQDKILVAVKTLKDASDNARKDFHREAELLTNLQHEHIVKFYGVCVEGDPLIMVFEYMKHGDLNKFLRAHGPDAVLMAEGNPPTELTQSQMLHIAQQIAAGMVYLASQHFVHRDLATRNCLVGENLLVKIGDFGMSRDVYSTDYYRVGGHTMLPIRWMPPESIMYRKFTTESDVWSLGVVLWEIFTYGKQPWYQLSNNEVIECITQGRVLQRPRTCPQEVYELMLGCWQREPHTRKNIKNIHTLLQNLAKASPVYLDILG
Experimental: The SN56 T48 cell line with stable overexpression of the TrkB receptor was purchased from Emory University (Atlanta, GA, USA) and cultivated according to the protocol described in Jang et al., 2010 [12]. The cell lines were cultivated with the following reagents: DMEM High Glucose, fetal bovine serum (FBS), Penicillin-Streptomycin Solution 100×, and Trypsin-EDTA 1×; all were purchased from Biowest, and G418 was from ThermoFisher Scientific. For the ELFI experiments, cells were seeded (8000/well) on a PDL-treated 96-well plate (BioCoat™, Corning Inc., Corning, NY, USA) and 6-well plate (400,000/well) for lysate collection and immunoblot analysis.
In the orthosteric agonist mode experiments, starved cells (5 h) were treated with compounds (0.125–100 μM; volume, 100 μL/well) or BDNF (0.01–10 nM; volume, 100 μL/well) dissolved in culture medium. In the allosteric modulation mode experiments, starved cells (5 h) were treated with final compound concentrations of 3, 10, and 30 μM; volume, 50 μL/well) in the presence of a rising concentration of BDNF (final concentration in well, 0.15–5 nM; volume, 50 μL/well). Corresponding treatment with DMSO (v/v) was performed for a control. Cells were treated for 15 min in both the orthosteric and allosteric modulation mode experiments.
The analysis of TrkB receptor activation was performed using the ELFI method adapted from Boltayev et al. (2017) with some modifications. After compound treatment, experiments were stopped by fixing cells with 10% buffered formalin (Kolchem, Lodz, Poland) for 20 min (volume, 100 μL/well). Afterwards, cells were permeabilized with washing buffer (TBS+ 0.1% Tween20) for 15 min, and endogenous peroxidases were quenched by 20 min of incubation with 1% H2O2 dissolved in TBS (each solution: volume, 100 μL/well). Epitopes were blocked with 10% BSA (Biowest) dissolved in washing buffer for 2 h (volume, 100 μL/well) and incubated with anti-pTrkB (Tyr707) primary antibody (Cell Signaling Technology, Danvers, MA, USA) diluted in washing buffer (1:500; overnight at 4 °C; volume, 100 μL/well). After repeated washing, cells were incubated with HRP-linked anti-rabbit antibody (Cell Signaling Technology) for 2 h (1:1000; RT; volume, 100 μL/well) and washed. The cells were then incubated with 100 μL of ImmunoCruz™ Western Blotting Luminol (Santa Cruz Biotechnology, Dallas, TX, USA) for 1 min in the dark, and the signals were measured using a microplate luminometer (VICTOR Light 1420-060, PerkinElmer®, Waltham, MA, USA). For non-specific binding, cells were treated, with the exception of primary antibody.

[7] = Chemical stability pH 7.4; format: physicochemical; conditions: pH = 7.4, 4 h
[8] = PAMPA; conditions: for PAMPA: 10 μM, 4 h
[9] = pH 7.4
[10] = Caco-2 passive permeability; conditions: human, Caco-2, with 5 μM elacridar and 20 μM cyclosporine A

Molecule | Binding to the exTrkB receptor [2] | Clint HLM [3] [μL·min^−1·mgprotein^−1] | Metabolic stability in HLM (classification) [3] | Papp,AB [4] | Papp,BA [4] | Clint MLM [5] [μL·min^−1·mgprotein^−1] | Metabolic stability in MLM (classification) [5] | Orthosteric activity (induction of TrkB phosphorylation) [6] | Chemical Stability [% of Degradation] [7] | PAMPA [8] | Kinetic Solubility [9] [µM] | also measured
7-hydroxy-8-methoxyflavone (7H8M-flavone) and 8-hydroxy-7-methoxyflavone (8H7M-flavone) [7H8M-flavone 8H7M-flavone] |  |  |  |  |  |  |  |  |  |  |  | C brain, individual mice ([1]; 50 mg/kg): < LLQ; C brain, individual mice ([1]; iv, 1 mg/kg): < LLQ; C plasma, individual mice ([1]; iv, 1 mg/kg): < LLQ; Time of maximal plasma concentration ([1]; iv, 1 mg/kg): 5 min; Time of maximal plasma concentration ([1]; po, 50 mg/kg): 10 min
CN(C)c1ccc(-c2cc(=O)c3ccc(O)c(O)c3o2)cc1 [4′-dimethylamino-7,8-DHF] | not observed | 175.7 | highly unstable | 15.61 10^−6·cm/s | 9.03 10^−6·cm/s | 365.1 | highly unstable | did not observe any orthosteric activity | 1.31% | 15.5 10^−6·cm/s |  | Permeability in Caco-2 system (good permeability) [4]: > 10^−6 cm/s; Permeability in PAMPA assay (good permeability) [8]: > 10^−6 cm/s
NCCCC[C@H](NC(=O)[C@H](CO)NC(=O)CCC(=O)O)C(=O)NCCCCCCNC(=O)[C@H](CCCCN)NC(=O)[C@H](CO)NC(=O)CCC(=O)O [GSB-106, [OH-Suc-Ser-Lys-NH-(CH2)3-]2] | not observed |  | instability of this compound in the experimental system |  |  |  | instability of this compound in the experimental system | did not observe any orthosteric activity | Stable | 0.85 10^−6·cm/s | 152.7 | 
O=C1NCCCC1C(=O)NCCc1c[nH]c2ccc(O)cc12 (stereo not shown) [HIOC] | not observed |  | very good metabolic stability | 1.11 10^−6·cm/s | 2.29 10^−6·cm/s | 2.1 | very good metabolic stability | did not observe any orthosteric activity | Stable | 1.24 10^−6·cm/s | 437 | 

The next lines start with results.

Binding to the exTrkB receptor [2] | Clint HLM [3] [μL·min^−1·mgprotein^−1] | Metabolic stability in HLM (classification) [3] | Papp,AB [4] | Papp,BA [4] | Clint MLM [5] [μL·min^−1·mgprotein^−1] | Metabolic stability in MLM (classification) [5] | Orthosteric activity (induction of TrkB phosphorylation) [6] | Chemical Stability [% of Degradation] [7] | PAMPA [8] | Kinetic Solubility [9] [µM] | Molecule | also measured
not observed |  | highly unstable |  |  |  | highly unstable | did not observe any orthosteric activity | Stable | 0.22 10^−6·cm/s |  | COc1ccc(-c2cc3cccc(O)c3c(=O)o2)cc1 [Isocumarin, 8-hydroxy-3-(4′-methoxyphenyl)-isocumarin] | microsomal CLint at 1 μM ([3]; human, liver microsomes): 781 µL/min/mg; Papp A→B at 2 h [10]: 1.6 ×10⁻⁶ cm/s; Papp B→A at 2 h [10]: 2.18 ×10⁻⁶ cm/s; microsomal CLint at 1 μM ([5]; mouse, liver microsomes): 407 µL/min/mg
not observed | 29 | moderately stable | 6.47 10^−6·cm/s | 4.97 10^−6·cm/s | 4.8 | stable | did not observe any orthosteric activity | 4.18% | 2.36 10^−6·cm/s |  | OCCN(CCO)c1ccc(C(c2ccc(Cl)cc2)c2ccc(N(CCO)CCO)cc2)cc1 [LM22-B10] | Kd ([2]; non-binding compounds given as 0): 83 µM

— paper PMC8398766, “Do Small Molecules Activate the TrkB Receptor in the Same Manner as BDNF? Limitations of Published TrkB Low Molecular Agonists and Screening for Novel TrkB Orthosteric Agonists” (Pharmaceuticals, 2021)
